# According to US9540392B2, “Thienopyrimidines” (BAYER PHARMA AKTIENGESELLSCHAFT, priority 2012, dated 2017):
# Molecular target: T1, human full-length MKNK1 (Homo sapiens, UniProt Q9BUB5, T385D)
# T1 construct: GST (N); purchased Carna Biosciences 02-145; host or cells: insect cells (baculovirus expression system)
# Assay: MKNK1 kinase high ATP assay (TR-FRET)
# Format: biochemical
# Conditions: 2 mM ATP, after preincubation with MKNK1; read-out: MKNK1 IC50 (MKNK1 high ATP)
# How it was run: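 Compound was preincubated 15 min at 22° C. with MKNK1 in 50 mM HEPES pH 7.5, 5 mM MgCl2, 1.0 mM DTT, then the reaction ran 30 min at 22° C. with 2 mM ATP and 0.06 μM biotinylated peptide (final).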
# T1 sequence (Q9BUB5 1-424 isoform Q9BUB5-2 T344D): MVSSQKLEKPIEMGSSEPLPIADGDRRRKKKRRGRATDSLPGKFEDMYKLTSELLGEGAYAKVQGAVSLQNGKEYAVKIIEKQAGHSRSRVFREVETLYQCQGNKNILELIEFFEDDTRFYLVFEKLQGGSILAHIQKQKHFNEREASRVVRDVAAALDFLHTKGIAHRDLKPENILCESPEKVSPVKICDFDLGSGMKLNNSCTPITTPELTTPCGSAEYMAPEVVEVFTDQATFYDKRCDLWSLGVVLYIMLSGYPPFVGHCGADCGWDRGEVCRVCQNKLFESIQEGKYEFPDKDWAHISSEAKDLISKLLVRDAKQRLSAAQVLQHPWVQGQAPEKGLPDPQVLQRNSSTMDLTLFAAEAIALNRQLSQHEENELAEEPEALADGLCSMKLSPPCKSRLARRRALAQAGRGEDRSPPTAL
row,IC50,SMILES
1,12.4 nM,"O=C(C1CCc2c(sc3ncnc(Nc4ccc5[nH]ncc5c4)c23)C1)N1CC=CC1 (racemic) [Example 184, (RS)-2,5-dihydro-1H-pyrrol-1-yl[4-(1H-indazol-5-ylamino)-5,6,7,8-tetrahydro[1]benzothieno[2,3-d]pyrimidin-7-yl]methanone]"
2,40.6 nM,"O=C(C1CCc2c(sc3ncnc(Nc4ccc5[nH]ncc5c4)c23)C1)N1CCCC1CO (racemic) [Example 186, (RS)-[2-(hydroxymethyl)pyrrolidin-1-yl][4-(1H-indazol-5-ylamino)-5,6,7,8-tetrahydro[1]benzothieno[2,3-d]pyrimidin-7-yl]methanone]"
3,22.6 nM,"O=C(C1CCc2c(sc3ncnc(Nc4ccc5[nH]ncc5c4)c23)C1)N1CCS(=O)(=O)CC1 (racemic) [Example 188, (RS)-(1,1-dioxidothiomorpholin-4-yl)[4-(1H-indazol-5-ylamino)-5,6,7,8-tetrahydro[1]benzothieno[2,3-d]pyrimidin-7-yl]methanone]"
4,7.3 nM,"O=C(C1CCc2c(sc3ncnc(Nc4ccc5[nH]ncc5c4)c23)C1)N1CCN(CC2CC2)CC1 (racemic) [Example 191, (RS)-[4-(cyclopropylmethyl)piperazin-1-yl][4-(1H-indazol-5-ylamino)-5,6,7,8-tetrahydro[1]benzothieno[2,3-d]pyrimidin-7-yl]methanone]"
5,15.1 nM,"O=C(C1CCc2c(sc3ncnc(Nc4ccc5[nH]ncc5c4)c23)C1)N1CCN2CCCCC2C1 (racemic) [Example 192, (RS)-[4-(1H-indazol-5-ylamino)-5,6,7,8-tetrahydro[1]benzothieno[2,3-d]pyrimidin-7-yl](octahydro-2H-pyrido[1,2-a]pyrazin-2-yl)methanone]"
6,7.5 nM,"N#CC1CCCN(C(=O)C2CCc3c(sc4ncnc(Nc5ccc6[nH]ncc6c5)c34)C2)C1 (racemic) [Example 196, (RS)-1-{[4-(1H-indazol-5-yalmino)-5,6,7,8-tetrahydro[1]benzothieno[2,3-d]pyrimidin-7-yl]carbonyl}piperidine-3-carbonitrile]"
7,7.9 nM,"CN1CCN(C(=O)C2CCc3c(sc4ncnc(Nc5ccc6[nH]ncc6c5)c34)C2)CC1CCO (racemic) [Example 197, (RS)-[3-(2-hydroxyethyl)-4-methylpiperazin-1-yl][4-(1H-indazol-5-ylamino)-5,6,7,8-tetrahydro[1]benzothieno[2,3-d]pyrimidin-7-yl]methanone]"
8,10 nM,"CC(=O)N(C)C1CCN(C(=O)C2CCc3c(sc4ncnc(Nc5ccc6[nH]ncc6c5)c34)C2)C1 (racemic) [Example 198, (RS)-N-(1-{[4-(1H-indazol-5-ylamino)-5,6,7,8-tetrahydro[1]benzothieno[2,3-d]pyrimidin-7-yl]carbonyl}pyrrolidin-3-yl)-N-methylacetamide]"
9,8.6 nM,"O=C(C1CCc2c(sc3ncnc(Nc4ccc5[nH]ncc5c4)c23)C1)N1CC(N2CCCCC2)C1 (racemic) [Example 200, (RS)-[4-(1H-indazol-5-ylamino)-5,6,7,8-tetrahydro[1]benzothieno[2,3-d]pyrimidin-7-yl][3-(piperidin-1-yl)azetidin-1-yl]methanone]"
10,7.3 nM,"COCC1CCCN1C(=O)C1CCc2c(sc3ncnc(Nc4ccc5[nH]ncc5c4)c23)C1 (racemic) [Example 204, (RS)-[4-(1H-indazol-5-ylamino)-5,6,7,8-tetrahydro[1]benzothieno[2,3-d]pyrimidin-7-yl][2-(methoxymethyl)pyrrolidin-1-yl]methanone]"
11,7.3 nM,"CN(C)C1CCN(C(=O)C2CCc3c(sc4ncnc(Nc5ccc6[nH]ncc6c5)c34)C2)C1 (racemic) [Example 205, (RS)-[3-(dimethylamino)pyrrolidin-1-yl][4-(1H-indazol-5-ylamino)-5,6,7,8-tetrahydro[1]benzothieno[2,3-d]pyrimidin-7-yl]methanone]"

# More lines, now with the values behind:
row,SMILES,IC50
1,"COc1cc2[nH]ncc2cc1Nc1ncnc2sc3c(c12)CCC(C(=O)N1CCCC1)C3 (racemic) [Example 183, (RS)-{4-[(6-Methoxy-1H-indazol-5-yl)amino]-5,6,7,8-tetrahydro[1]benzothieno[2,3-d]pyrimidin-7-yl}(pyrrolidin-1-yl)methanone]",3.2 nM
2,"CCN(CCC#N)C(=O)C1CCc2c(sc3ncnc(Nc4ccc5[nH]ncc5c4)c23)C1 (racemic) [Example 190, (RS)-N-(2-cyanoethyl)-N-ethyl-4-(1H-indazol-5-ylamino)-5,6,7,8-tetrahydro[1]benzothieno[2,3-d]pyrimidine-7-carboxamide]",6 nM
3,"CN(CCCCO)C(=O)C1CCc2c(sc3ncnc(Nc4ccc5[nH]ncc5c4)c23)C1 (racemic) [Example 193, (RS)-N-(4-hydroxybutyl)-4-(1H-indazol-5-ylamino)-N-methyl-5,6,7,8-tetrahydro[1]benzothieno[2,3-d]pyrimidine-7-carboxamide]",16.8 nM
4,"O=C(C1CCc2c(sc3ncnc(Nc4ccc5[nH]ncc5c4)c23)C1)N1CCC(O)(C(F)(F)F)CC1 (racemic) [Example 194, (RS)-[4-hydroxy-4-(trifluoromethyl)piperidin-1-yl][4-(1H-indazol-5-ylamino)-5,6,7,8-tetrahydro[1]benzothieno[2,3-d]pyrimidin-7-yl]methanone]",12 nM
5,"O=C(CN1CCN(C(=O)C2CCc3c(sc4ncnc(Nc5ccc6[nH]ncc6c5)c34)C2)CC1)N1CCCC1 (racemic) [Example 201, (RS)-2-(4-{[4-(1H-indazol-5-ylamino)-5,6,7,8-tetrahydro[1]benzothieno[2,3-d]pyrimidin-7-yl]carbonyl}piperazin-1-yl)-1-(pyrrolidin-1-yl)ethanone]",18.1 nM
6,"CN(CCCO)C(=O)C1CCc2c(sc3ncnc(Nc4ccc5[nH]ncc5c4)c23)C1 (racemic) [Example 202, (RS)-N-(3-hydroxypropyl)-4-(1H-indazol-5-ylamino)-N-methyl-5,6,7,8-tetrahydro[1]benzothieno[2,3-d]pyrimidine-7-carboxamide]",15 nM
7,"CC(C)Oc1cc2[nH]ncc2cc1Nc1ncnc2sc3c(c12)CCC(C(=O)N1CC2(COC2)C1)C3 (racemic) [Example 206, (RS)-2-Oxa-6-azaspiro[3.3]hept-6-yl(4-{[6-(propan-2-yloxy)-1H-indazol-5-yl]amino}-5,6,7,8-tetrahydro[1]benzothieno[2,3-d]pyrimidin-7-yl)methanone]",1 nM
8,"COCCN(CCO)C(=O)C1CCc2c(sc3ncnc(Nc4cc5cn[nH]c5cc4OC)c23)C1 (racemic) [Example 207, (RS)—N-(2-Hydroxyethyl)-N-(2-methoxyethyl)-4-[(6-methoxy-1H-indazol-5-yl)amino]-5,6,7,8-tetrahydro[1]benzothieno[2,3-d]pyrimidine-7-carboxamide]",0.5 nM
9,"CC(C)Oc1cc2[nH]ncc2cc1Nc1ncnc2sc3c(c12)CCC(C(=O)N1CC(C#N)C1)C3 (racemic) [Example 208, (RS)-1-[(4-{[6-(Propan-2-yloxy)-1H-indazol-5-yl]amino}-5,6,7,8-tetrahydro[1]benzothieno[2,3-d]pyrimidin-7-yl)carbonyl]azetidine-3-carbonitrile]",0.2 nM
10,"CCOc1cc2[nH]ncc2cc1Nc1ncnc2sc3c(c12)CCC(C(=O)N1CCCCC1)C3 (racemic) [Example 209, (RS)-{4-[(6-Ethoxy-1H-indazol-5-yl)amino]-5,6,7,8-tetrahydro[1]benzothieno[2,3-d]pyrimidin-7-yl}(piperidin-1-yl)methanone]",0.7 nM
